In ChEMBL document CHEMBL4251605, “2-Substituted 7-trifluoromethyl-thiadiazolopyrimidones as alkaline phosphatase inhibitors. Synthesis, structure activity relationship and molecular docking study” (Eur J Med Chem, 2018):

Assays:
Format in all cases: cell-based
[1] = molecular target: T1, Alkaline phosphatase, tissue-nonspecific isozyme (Homo sapiens, UniProt P05186); assay: Inhibition of human TNAP expressed in COS7 cells preincubated for 5 to 7 mins followed by CDP-star substrate addition measured after 15 to 20 mins by luminescence assay
T1 sequence (P05186 whole entry): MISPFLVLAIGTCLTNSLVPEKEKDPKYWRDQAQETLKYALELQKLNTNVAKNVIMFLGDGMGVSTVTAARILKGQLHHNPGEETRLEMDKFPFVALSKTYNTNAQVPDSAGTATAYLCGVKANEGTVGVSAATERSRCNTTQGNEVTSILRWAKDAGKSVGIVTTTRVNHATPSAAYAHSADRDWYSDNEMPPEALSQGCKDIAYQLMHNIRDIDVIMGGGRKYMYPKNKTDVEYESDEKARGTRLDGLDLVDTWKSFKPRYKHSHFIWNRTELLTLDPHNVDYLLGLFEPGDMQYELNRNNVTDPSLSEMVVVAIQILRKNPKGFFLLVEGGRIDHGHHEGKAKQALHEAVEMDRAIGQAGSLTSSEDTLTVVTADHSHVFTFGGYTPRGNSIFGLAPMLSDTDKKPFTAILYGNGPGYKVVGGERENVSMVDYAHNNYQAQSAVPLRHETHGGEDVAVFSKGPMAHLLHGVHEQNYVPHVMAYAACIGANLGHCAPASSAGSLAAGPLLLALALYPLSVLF

[2] = molecular target: Intestinal-type alkaline phosphatase (Homo sapiens, UniProt P09923); assay: Inhibition of human IAP expressed in COS7 cells preincubated for 5 to 7 mins followed by CDP-star substrate addition measured after 15 to 20 mins by luminescence assay
Sequence of Intestinal-type alkaline phosphatase (P09923 whole entry): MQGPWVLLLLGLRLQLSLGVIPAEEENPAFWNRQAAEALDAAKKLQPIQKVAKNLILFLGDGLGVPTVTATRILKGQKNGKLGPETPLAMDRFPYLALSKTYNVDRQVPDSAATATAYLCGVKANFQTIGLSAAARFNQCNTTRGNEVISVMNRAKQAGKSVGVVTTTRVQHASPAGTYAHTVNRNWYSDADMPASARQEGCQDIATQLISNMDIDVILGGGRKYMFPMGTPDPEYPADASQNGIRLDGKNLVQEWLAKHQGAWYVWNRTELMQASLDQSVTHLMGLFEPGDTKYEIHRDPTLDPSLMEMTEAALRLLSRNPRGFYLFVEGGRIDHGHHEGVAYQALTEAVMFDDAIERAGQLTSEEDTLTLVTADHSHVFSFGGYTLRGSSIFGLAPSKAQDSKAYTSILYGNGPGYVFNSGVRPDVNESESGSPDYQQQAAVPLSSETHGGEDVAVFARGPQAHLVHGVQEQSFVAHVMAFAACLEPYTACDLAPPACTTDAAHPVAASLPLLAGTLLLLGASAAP

Homo sapiens = species: Homo sapiens; assay: Selectivity ratio of IC50 for human IAP expressed in COS7 cells to IC50 for human TNAP expressed in COS7 cells

## CCOc1ccc(-c2nn3c(=O)cc(C(F)(F)F)nc3s2)cc1
[1]
  IC50: 930 nM
[2]
  IC50: 790 nM

## CCOc1ccc(Nc2nn3c(=O)cc(C(F)(F)F)nc3s2)cc1
[1]
  IC50: 1580 nM
[2]
  IC50: 2020 nM

## N#Cc1cccc(-c2nn3c(=O)cc(C(F)(F)F)nc3s2)c1
[1]
  IC50: 560 nM
[2]
  IC50: 1120 nM

## COc1ccccc1-c1nn2c(=O)cc(C(F)(F)F)nc2s1
[1]
  IC50: 3480 nM
[2]
  IC50: > 100000 nM

## O=c1cc(C(F)(F)F)nc2sc(-c3ccccc3F)nn12
[1]
  IC50: > 100000 nM
[2]
  IC50: > 100000 nM

## CC(C)c1ccc(Nc2nn3c(=O)cc(C(F)(F)F)nc3s2)cc1
[1]
  IC50: 1980 nM
[2]
  IC50: 31500 nM

## O=c1cc(C(F)(F)F)nc2sc(-c3cccc(-c4ccccc4)c3)nn12
[1]
  IC50: 1120 nM
[2]
  IC50: 1670 nM

## Nc1ccc(Nc2nn3c(=O)cc(C(F)(F)F)nc3s2)cc1
[1]
  IC50: 330 nM
[2]
  IC50: 710 nM

## N[C@@H](Cc1ccccc1)C(=O)O [PHENYLALANINE]
[2]
  IC50: 80200 nM

## CCCCN(CCCC)c1nn2c(=O)cc(C(F)(F)F)nc2s1
[1]
  IC50: 1530 nM
[2]
  IC50: 4630 nM

## CCCCNc1nn2c(=O)cc(C(F)(F)F)nc2s1
[1]
  IC50: 880 nM
[2]
  IC50: 710 nM

## CCCCCNc1nn2c(=O)cc(C(F)(F)F)nc2s1
[1]
  IC50: 610 nM
[2]
  IC50: 760 nM

## CCOc1ccccc1-c1nn2c(=O)cc(C(F)(F)F)nc2s1
[1]
  IC50: 4520 nM
[2]
  IC50: > 100000 nM

## C=CCNc1nn2c(=O)cc(C(F)(F)F)nc2s1
Homo sapiens
  Ratio IC50: 3
[1]
  IC50: 290 nM
[2]
  IC50: 890 nM

## O=c1cc(C(F)(F)F)nc2sc(-c3cccc(C(F)(F)F)c3)nn12
[1]
  IC50: 520 nM
[2]
  IC50: 680 nM

## Cc1cc(C)cc(-c2nn3c(=O)cc(C(F)(F)F)nc3s2)c1
[1]
  IC50: 520 nM
[2]
  IC50: 460 nM

## COc1ccc(-c2nn3c(=O)cc(C(F)(F)F)nc3s2)cc1
[1]
  IC50: 280 nM
[2]
  IC50: 480 nM

## O=c1cc(C(F)(F)F)nc2sc(-c3cccc(F)c3)nn12
[1]
  IC50: 1390 nM
[2]
  IC50: 740 nM

## O=c1cc(C(F)(F)F)nc2sc(-c3cccc([N+](=O)[O-])c3)nn12
[1]
  IC50: 620 nM
[2]
  IC50: 480 nM

## CN(N)c1nn2c(=O)cc(C(F)(F)F)nc2s1
[1]
  IC50: 2020 nM
[2]
  IC50: 2220 nM

## CCc1ccc(-c2nn3c(=O)cc(C(F)(F)F)nc3s2)cc1
[1]
  IC50: > 100000 nM
[2]
  IC50: 4550 nM

## O=c1cc(C(F)(F)F)nc2sc(-c3ccc(OC(F)(F)F)cc3)nn12
[1]
  IC50: > 100000 nM
[2]
  IC50: 240 nM

## CCCNc1nn2c(=O)cc(C(F)(F)F)nc2s1
[1]
  IC50: 1440 nM
[2]
  IC50: 310 nM

## Cc1ccc(-c2nn3c(=O)cc(C(F)(F)F)nc3s2)cc1C
[1]
  IC50: 540 nM
[2]
  IC50: 1750 nM

## CN(C)CCNc1nn2c(=O)cc(C(F)(F)F)nc2s1
[1]
  IC50: 450 nM
[2]
  IC50: 3750 nM

## Cc1ccc(-c2nn3c(=O)cc(C(F)(F)F)nc3s2)cc1
[1]
  IC50: 1060 nM
[2]
  IC50: 360 nM

## COc1cc(OC)cc(-c2nn3c(=O)cc(C(F)(F)F)nc3s2)c1
[1]
  IC50: 1150 nM
[2]
  IC50: 760 nM

## COc1cccc(Nc2nn3c(=O)cc(C(F)(F)F)nc3s2)c1
[1]
  IC50: 380 nM
[2]
  IC50: 440 nM

## O=c1cc(C(F)(F)F)nc2sc(-c3ccccc3)nn12
[1]
  IC50: 210 nM
[2]
  IC50: 430 nM
